In patent publication US12569437B2, “Disease-site-specific liposomal formulation” (Osaka University, priority 2017, dated 2026):

Tested on: rat monocrotaline (MCT)-induced severe heart failure (pulmonary hypertension) model
Test: Survival rate in rat monocrotaline-induced pulmonary hypertension model
Format: in vivo
Settings: 42 days after MCT; oral 50 mg/kg × twice/day from day 7
Description: The produced Formulation 21 (ONO-1301Lipo formulation) as a test substance was intermittently administered intravenously once weekly to a rat monocrotaline (MCT)-induced severe heart failure (pulmonary hypertension) model from day 7 of the MCT administration, and the survival rate was compared with a group in which compound (A) (ONO-1301) was repeatedly orally administered; a group in which compound (A) was intermittently administered intravenously once weekly; and, as a positive control, a group in which an ET-1 antagonist (bosentan) was orally administered. In the control group, physiological saline (vehicle) was administered once weekly by intravenous administration.
For animals, Slc: Wistar male rats, 5 weeks old at the start of the test, and 66.4 to 90.8 g at arrival (Japan SLC, Inc.) were used. Monocrotaline (hereinafter referred to as “MCT”), lot No.: SLBG1999V (Sigma-Aldrich Corporation), was administered once subcutaneously at the back of the rats at a dose of 60 mg/kg. Six days after the MCT administration, the animals were divided into groups according to the weight stratification assignment method (Table 19).

For `COc1ccccc1Oc1c(NS(=O)(=O)c2ccc(C(C)(C)C)cc2)nc(-c2ncccn2)nc1OCCO` [Bosentan], the “Survival rate (%)” value was 30%.
